Results as given in patent US9102678B2, “Compounds and methods for inhibiting mitotic progression” (Millennium Pharmaceuticals, Inc., priority 2004, dated 2015).

biological target: T1, recombinant murine Aurora A enzyme (Mus musculus, UniProt P97477); test: Aurora A DELFIA Kinase Assay; assay type: biochemical; conditions: not given
T1 construct: hexahistidine (His6) (N); made in house; host or cells: insect cells, baculovirus (Bac-to-Bac, Invitrogen)
T1 sequence (P97477 whole entry): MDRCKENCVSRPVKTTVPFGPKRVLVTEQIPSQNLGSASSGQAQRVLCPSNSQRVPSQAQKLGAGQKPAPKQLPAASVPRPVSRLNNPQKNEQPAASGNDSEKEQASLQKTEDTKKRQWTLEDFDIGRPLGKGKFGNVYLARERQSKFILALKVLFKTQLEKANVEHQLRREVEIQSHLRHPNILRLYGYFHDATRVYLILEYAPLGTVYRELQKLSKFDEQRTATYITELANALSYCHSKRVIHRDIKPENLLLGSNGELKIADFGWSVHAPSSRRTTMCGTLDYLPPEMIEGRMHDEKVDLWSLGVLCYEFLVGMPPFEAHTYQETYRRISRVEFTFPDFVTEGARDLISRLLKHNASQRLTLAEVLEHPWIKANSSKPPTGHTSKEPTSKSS

| SMILES | IC50 |
| --- | --- |
| CC1N=C(c2c(F)cccc2F)c2cc(Cl)ccc2-c2nc(Nc3ccc(C(=O)O)cc3)ncc21 (stereo not shown) [Compound I-371, 4-{[9-chloro-7-(2,6-difluorophenyl)-5-methyl-5H-pyrimido[5,4-d][2]benzazepin-2-yl]amino}benzoic acid] | ≤ 100 nM |

same assay, conditions: mouse Aurora A, 250 μM ATP; threshold less than or equal to 100 nM; read-out: IC50

| IC50 | SMILES |
| --- | --- |
| ≤ 100 nM | CC1CN(C(=O)c2ccc(Nc3ncc4c(n3)-c3ccc(Cl)cc3C(c3c(F)cccc3Cl)=NC4)cc2)CCN1 (stereo not shown) [Compound I-323, 9-chloro-7-(2-chloro-6-fluorophenyl)-N-{4-[(3-methylpiperazin-1-yl)carbonyl]phenyl}-5H-pyrimido[5,4-d][2]benzazepin-2-amine] |
| ≤ 100 nM | CC1CN(C(=O)c2ccc(Nc3ncc4c(n3)-c3ccc(Cl)cc3C(c3c(F)cccc3Cl)=NC4)cc2)CC(C)N1 (stereo not shown) [Compound I-324, 9-chloro-7-(2-chloro-6-fluorophenyl)-N-{4-[(3,5-dimethylpiperazin-1-yl)carbonyl]phenyl}-5H-pyrimido[5,4-d][2]benzazepin-2-amine] |
| ≤ 100 nM | CNC1CCN(C(=O)c2ccc(Nc3ncc4c(n3)-c3ccc(Cl)cc3C(c3c(F)cccc3Cl)=NC4)cc2)CC1 [Compound I-325, 9-chloro-7-(2-chloro-6-fluorophenyl)-N-(4-{[4-(methylamino)piperidin-1-yl]carbonyl}phenyl)-5H-pyrimido[5,4-d][2]benzazepin-2-amine] |
| ≤ 100 nM | CNC1CCCN(C(=O)c2ccc(Nc3ncc4c(n3)-c3ccc(Cl)cc3C(c3c(F)cccc3Cl)=NC4)cc2)C1 (stereo not shown) [Compound I-326, 9-chloro-7-(2-chloro-6-fluorophenyl)-N-(4-{[3-(methylamino)piperidin-1-yl]carbonyl}phenyl)-5H-pyrimido[5,4-d][2]benzazepin-2-amine] |
| ≤ 100 nM | CNC1CCN(C(=O)c2ccc(Nc3ncc4c(n3)-c3ccc(Cl)cc3C(c3c(F)cccc3Cl)=NC4)cc2)C1 (stereo not shown) [Compound I-327, 9-chloro-7-(2-chloro-6-fluorophenyl)-N-(4-{[3-(methylamino)pyrrolidin-1-yl]carbonyl}phenyl)-5H-pyrimido[5,4-d][2]benzazepin-2-amine] |
| ≤ 100 nM | COc1ccccc1C1=NCc2cnc(Nc3ccc(C(=O)N4CCNC(C)C4)cc3)nc2-c2ccc(Cl)cc21 (stereo not shown) [Compound I-329, 9-chloro-7-(2-methoxyphenyl)-N-{4-[(3-methylpiperazin-1-yl)carbonyl]phenyl}-5H-pyrimido[5,4-d][2]benzazepin-2-amine] |
| ≤ 100 nM | COc1ccccc1C1=NCc2cnc(Nc3ccc(C(=O)N4CC(C)NC(C)C4)cc3)nc2-c2ccc(Cl)cc21 (stereo not shown) [Compound I-330] |
| ≤ 100 nM | CNC1CCN(C(=O)c2ccc(Nc3ncc4c(n3)-c3ccc(Cl)cc3C(c3ccccc3OC)=NC4)cc2)CC1 [Compound I-331, 9-chloro-7-(2-methoxyphenyl)-N-(4-{[4-(methylamino)piperidin-1-yl]carbonyl}phenyl)-5H-pyrimido[5,4-d][2]benzazepin-2-amine] |
| ≤ 100 nM | CNC1CCN(C(=O)c2ccc(Nc3ncc4c(n3)-c3ccc(Cl)cc3C(c3ccccc3OC)=NC4)cc2)C1 (stereo not shown) [Compound I-332, 9-chloro-7-(2-methoxyphenyl)-N-(4-{[3-(methylamino)pyrrolidin-1-yl]carbonyl}phenyl)-5H-pyrimido[5,4-d][2]benzazepin-2-amine] |
| ≤ 100 nM | CNC1CCCN(C(=O)c2ccc(Nc3ncc4c(n3)-c3ccc(Cl)cc3C(c3ccccc3OC)=NC4)cc2)C1 (stereo not shown) [Compound I-333, 9-chloro-7-(2-methoxyphenyl)-N-(4-{[3-(methylamino)piperidin-1-yl]carbonyl}phenyl)-5H-pyrimido[5,4-d][2]benzazepin-2-amine] |
| ≤ 100 nM | CNC(=O)c1ccc(Nc2ncc3c(n2)-c2ccc(Cl)cc2C(c2c(F)cccc2F)=NC3)cc1 [Compound I-334, 4-{[9-chloro-7-(2,6-difluorophenyl)-5H-pyrimido[5,4-d][2]benzazepin-2-yl]amino}-N-methylbenzamide] |
| ≤ 100 nM | CC(=O)c1ccc(Nc2ncc3c(n2)-c2ccc(Cl)cc2C(c2c(F)cccc2F)=NC3)cc1 [Compound I-337, 1-(4-{[9-chloro-7-(2,6-difluorophenyl)-5H-pyrimido[5,4-d][2]benzazepin-2-yl]amino}phenyl)ethanone] |
| ≤ 100 nM | NCC#Cc1cccc(Nc2ncc3c(n2)-c2ccc(Cl)cc2C(c2c(F)cccc2F)=NC3)c1 [Compound I-338, N-[3-(3-aminoprop-1-yn-1-yl)phenyl]-9-chloro-7-(2,6-difluorophenyl)-5H-pyrimido[5,4-d][2]benzazepin-2-amine] |
| ≤ 100 nM | CNC(=O)C1(N)CCN(C(=O)c2ccc(Nc3ncc4c(n3)-c3ccc(Cl)cc3C(c3c(F)cccc3F)=NC4)cc2)CC1 [Compound I-341, 4-amino-1-(4-{[9-chloro-7-(2,6-difluorophenyl)-5H-pyrimido[5,4-d][2]benzazepin-2-yl]amino}benzoyl)-N-methylpiperidine-4-carboxamide] |
| ≤ 100 nM | CN(C)CC#Cc1cccc(Nc2ncc3c(n2)-c2ccc(Cl)cc2C(c2c(F)cccc2F)=NC3)c1 [Compound I-343, 9-chloro-7-(2,6-difluorophenyl)-N-{3-[3-(dimethylamino)prop-1-yn-1-yl]phenyl}-5H-pyrimido[5,4-d][2]benzazepin-2-amine] |
| ≤ 100 nM | NC(=O)C1(N)CCN(C(=O)c2ccc(Nc3ncc4c(n3)-c3ccc(Cl)cc3C(c3c(F)cccc3F)=NC4)cc2)CC1 [Compound I-350, 4-amino-1-(4-{[9-chloro-7-(2,6-difluorophenyl)-5H-pyrimido[5,4-d][2]benzazepin-2-yl]amino}benzoyl)piperidine-4-carboxamide] |
| ≤ 100 nM | CNC1CN(C(=O)c2ccc(Nc3ncc4c(n3)-c3ccc(Cl)cc3C(c3c(F)cccc3Cl)=NC4)cc2)C1 [Compound I-351, 9-chloro-7-(2-chloro-6-fluorophenyl)-N-(4-{[3-(methylamino)azetidin-1-yl]carbonyl}phenyl)-5H-pyrimido[5,4-d][2]benzazepin-2-amine] |
| ≤ 100 nM | COc1cccc(Nc2ncc3c(n2)-c2ccc(C(=O)O)cc2C(c2c(F)cccc2F)=NC3)c1 [Compound I-353, 7-(2,6-difluorophenyl)-2-[(3-methoxyphenyl)amino]-5H-pyrimido[5,4-d][2]benzazepine-9-carboxylic acid] |
| ≤ 100 nM | CNC(=O)c1csc(Nc2ncc3c(n2)-c2ccc(Cl)cc2C(c2c(F)cccc2F)=NC3)n1 [Compound I-355, 2-{[9-chloro-7-(2,6-difluorophenyl)-5H-pyrimido[5,4-d][2]benzazepin-2-yl]amino}-N-methyl-1,3-thiazole-4-carboxamide] |
| ≤ 100 nM | Cc1csc(Nc2ncc3c(n2)-c2ccc(C(=O)O)cc2C(c2c(F)cccc2F)=NC3)n1 [Compound I-357, 7-(2,6-difluorophenyl)-2-[(4-methyl-1,3-thiazol-2-yl)amino]-5H-pyrimido[5,4-d][2]benzazepine-9-carboxylic acid] |
| ≤ 100 nM | CN(C)CCC(=O)c1cccc(Nc2ncc3c(n2)-c2ccc(Cl)cc2C(c2c(F)cccc2F)=NC3)c1 [Compound I-359, 1-(3-{[9-chloro-7-(2,6-difluorophenyl)-5H-pyrimido[5,4-d][2]benzazepin-2-yl]amino}phenyl)-3-(dimethylamino)propan-1-one] |
| ≤ 100 nM | CC1CN(C(=O)c2csc(Nc3ncc4c(n3)-c3ccc(Cl)cc3C(c3c(F)cccc3F)=NC4)n2)CC(C)N1 (stereo not shown) [Compound I-362, 9-chloro-7-(2,6-difluorophenyl)-N-{4-[(3,5-dimethylpiperazin-1-yl)carbonyl]-1,3-thiazol-2-yl}-5H-pyrimido[5,4-d][2]benzazepin-2-amine] |
| ≤ 100 nM | C[C@@H]1CN(C(=O)c2csc(Nc3ncc4c(n3)-c3ccc(Cl)cc3C(c3c(F)cccc3F)=NC4)n2)CCN1 [Compound I-365, 9-chloro-7-(2,6-difluorophenyl)-N-(4-{[(3R)-3-methylpiperazin-1-yl]carbony}-1,3-thiazol-2-yl)-5H-pyrimido[5,4-d][2]benzazepin-2-amine] |
| ≤ 100 nM | C[C@@H]1CNCCN1C(=O)c1ccc(Nc2ncc3c(n2)-c2ccc(Cl)cc2C(c2c(F)cccc2F)=NC3)cc1 [Compound I-366, 9-chloro-7-(2,6-difluorophenyl)-N-(4-{[(2R)-2-methylpiperazin-1-yl]carbonyl}phenyl)-5H-pyrimido[5,4-d][2]benzazepin-2-amine] |
| ≤ 100 nM | CNC1CCN(C(=O)c2csc(Nc3ncc4c(n3)-c3ccc(Cl)cc3C(c3c(F)cccc3F)=NC4)n2)C1 (stereo not shown) [Compound I-367, 9-chloro-7-(2,6-difluorophenyl)-N-(4-{[3-(methylamino)pyrrolidin-1-yl]carbonyl}-1,3-thiazol-2-yl)-5H-pyrimido[5,4-d][2]benzazepin-2-amine] |
| ≤ 100 nM | O=C(O)c1coc(Nc2ncc3c(n2)-c2ccc(Cl)cc2C(c2c(F)cccc2F)=NC3)n1 [Compound I-368, 2-{[9-chloro-7-(2,6-difluorophenyl)-5H-pyrimido[5,4-d][2]benzazepin-2-yl]amino}-1,3-oxazole-4-carboxylic acid] |
| ≤ 100 nM | CN(C)CCCc1cccc(Nc2ncc3c(n2)-c2ccc(Cl)cc2C(c2c(F)cccc2F)=NC3)c1 [Compound I-372, 9-chloro-7-(2,6-difluorophenyl)-N-{3-[3-(dimethylamino)propyl]phenyl}-5H-pyrimido[5,4-d][2]benzazepin-2-amine] |
| ≤ 100 nM | NCCCc1cccc(Nc2ncc3c(n2)-c2ccc(Cl)cc2C(c2c(F)cccc2F)=NC3)c1 [Compound I-373, N-[3-(3-aminopropyl)phenyl]-9-chloro-7-(2,6-difluorophenyl)-5H-pyrimido[5,4-d][2]benzazepin-2-amine] |
| ≤ 100 nM | CC1CN(C(=O)c2coc(Nc3ncc4c(n3)-c3ccc(Cl)cc3C(c3c(F)cccc3F)=NC4)n2)CC(C)N1 (stereo not shown) [Compound I-374, 9-chloro-7-(2,6-difluorophenyl)-N-[4-[(3,5-dimethylpiperazin-1-yl)carbonyl]-1,3-oxazol-2-yl]-5H-pyrimido[5,4-d][2]benzazepin-2-amine] |
| ≤ 100 nM | CNC1CCN(C(=O)c2coc(Nc3ncc4c(n3)-c3ccc(Cl)cc3C(c3c(F)cccc3F)=NC4)n2)C1 (stereo not shown) [Compound I-375, 9-chloro-7-(2,6-difluorophenyl)-N-(4-{[3-(methylamino)pyrrolidin-1-yl]carbonyl}-1,3-oxazol-2-yl)-5H-pyrimido[5,4-d][2]benzazepin-2-amine] |
